According to the CheMixHub viscosity set:

Assay: xn = mol fraction of the nth substance listed

[2H]O[2H] + Cc1cccnc1
viscosity [mPa·s], 101 kPa
Conditions | x2 = 0.0233 | x2 = 0.05084 | x2 = 0.08428 | x2 = 0.1255
297.15 K | 1.471 | 1.954 | 2.315 | 2.706
298.15 K | 1.433 | 1.899 | 2.249 | 2.627
299.15 K | 1.389 | 1.846 | 2.189 | 2.558
300.15 K | 1.355 | 1.794 | 2.122 | 2.483
301.15 K | 1.32 | 1.751 | 2.059 | 2.401
302.15 K | 1.284 | 1.7 | 1.999 | 2.33
303.15 K | 1.254 | 1.656 | 1.949 | 2.267
304.15 K | 1.225 | 1.615 | 1.893 | 2.2
305.15 K | 1.191 | 1.578 | 1.843 | 2.14
306.15 K | 1.165 | 1.538 | 1.793 | 2.083
307.15 K | 1.136 | 1.502 | 1.751 | 2.033
308.15 K | 1.104 | 1.467 | 1.708 | 1.981
309.15 K | 1.082 | 1.434 | 1.665 | 1.932
310.15 K | 1.055 | 1.404 | 1.631 | 1.889
311.15 K | 1.034 | 1.371 | 1.589 | 1.841
312.15 K | 1.007 | 1.344 | 1.555 | 1.804
313.15 K | 0.984 | 1.32 | 1.522 | 1.765

CC(=O)CC(C)=O + CCCC(C)O
298.15 K, 101 kPa
Conditions | viscosity [mPa·s]
x1 = 0.1 | 2.324
x1 = 0.2 | 1.65
x1 = 0.3 | 1.276
x1 = 0.4 | 1.082
x1 = 0.5 | 0.983
x1 = 0.6 | 0.918
x1 = 0.7 | 0.855
x1 = 0.8 | 0.787
x1 = 0.9 | 0.725

CCCCCCCCCCCCCCCCCC[P+](CCCC)(CCCC)CCCC.N#Cc1ccc[n-]1 + OCCN(CCO)CCO
viscosity [mPa·s], 100 kPa
Conditions | 293.15 K | 298.15 K | 303.15 K | 313.15 K
x1 = 0.014 | 971 | 643 | 420 | 192
x1 = 0.029 | 1032 | 613 | 390 | 189
x1 = 0.046 | 1123 | 683 | 439 | 217
x1 = 0.085 | 1228 | 775 | 506 | 248
x1 = 0.104 | 1251 | 794 | 526 | 258
x1 = 0.214 | 1185 | 795 | 538 | 267
x1 = 0.286 | 1096 | 746 | 509 | 257
x1 = 0.387 | 1019 | 704 | 483 | 248
x1 = 0.475 | 928 | 646 | 448 | 233
x1 = 0.548 | 856 | 600 | 422 | 225
x1 = 0.73 | 847 | 614 | 459 | 242
x1 = 0.834 | 925 | 653 | 459 | 244

CC(=O)CC(C)=O + CCCCO
303.15 K, 101 kPa
Conditions | viscosity [mPa·s]
x1 = 0.0509 | 1.941
x1 = 0.1003 | 1.7
x1 = 0.3007 | 1.142
x1 = 0.5004 | 0.887
x1 = 0.7 | 0.751
x1 = 0.8998 | 0.692
x1 = 0.9504 | 0.678
